Data reported in patent publication US20100041746A1, “NOVEL USE OF ORGANIC COMPOUNDS” (priority 2006, published 2010).

Columns and labels:
mUCP2 = experiment: Gene expression in C2C12 muscle cells (TaqMan RT-PCR): mUCP2; type: cell-based, mouse; conditions: 24 h incubation, mRNA
Description: (§1) C2C12 subclone cells were obtained from Dr. Grimaldi, University of Nice, France. C2C12PPd cells were seeded in 24-well-plates with 0.1×106 to 0.15×106 and kept at 37° C. in maintenance medium (DMEM #41965 adjusted to 10% FBS, 2 mM L-Glutamine, 1 mM sodium pyruvate, 100 IU/ml penicillin and 100 μg/ml streptomycin). At 90-95% confluency, cells were washed with 1×PBS and changed to differentiation medium (DMEM #41965 adjusted to 3% FBS, 2 mM Glutamine and 1 mM sodium pyruvate). After 4 days of differentiation, cells were washed with 1×PBS and treated in treatment medium (DMEM #41965 adjusted to 2% BSA, 2 mM Glutamine and 100 IU/ml penicillin and 100 μg/ml streptomycin) with the test compounds. DMSO contents were adjusted to 0.5% final concentration.
(§2) After 24 h incubation with tested compounds, cells were washed with 1×PBS, harvested with 300 μl RLT buffer (Qiagen RNeasy Mini Kit #74106) in QIAshredder (Qiagen 79656) and stored at −20° C.
(§3) Total RNA was extracted using the Qiagen RNeasy Mini Kit, including an in column DNase step (Qiagen #79254) according to the manufacture's protocol. RNA concentration was determined using RiboGreen® RNA quantification assay (Molecular Probes #R11490, Eugene, USA) according to the manufacturer's protocol. 200 ng of the total RNA were subject to first strand cDNA synthesis by reverse transcription using the Omniscript™ RT-kit (Qiagen #205113, Basel, CH) with 10 μM Random Primers (Promega #C1181) according to the manufacturer's instructions. The final volume was adjusted to 400 μl with DEPC-treated water (Ambion, Austin, Tex., USA) and stored at −20° C.
(§4) Quantitative real-time TaqMan RT-PCR, based on the multiplex method, was used to quantify the expression levels of selected genes. In the quantitative TaqMan RT-PCR, 5 μl of the diluted cDNA was added to 20 μl of the reaction mixture, consisting of 12.5 μl TaqMan 2× Master Mix (PE biosystems, Rotkreuz, CH), 300 nM PCR primers (forward and reverse), and 100 nM TaqMan probe for the gene of interest. The reference gene used was 18S rRNA, with primers and probes at 50 nM and 100 nM, respectively. Probes for the gene of interest were labeled with FAM on the 5′ end and with Tamra on the 3′ end. The 18S rRNA probe was labeled with VIC on the 5′ end and with Tamra on the 3′ end. Amplification was performed using an Abi-Prism 7700 Sequence Detector (PE Biosystems, Foster City, Calif., USA) in MicroAmp Optical 96-well reaction plates (PE Biosystems, Foster City, Calif., USA). The PCR amplification program consisted of 2 min at 50° C., 10 min at 95° C., and 40 cycles of 15 sec at 95° C. and 60 sec at 60° C. Threshold CT values were set at 0.05. The baseline start and stop values for the gene of interest were set at 3 and 15, respectively, and for the reference gene (18S rRNA) at 3 and 7, respectively. mRNA abundance was determined using the ΔCT method according to the manufacturer's protocol. Briefly, the ΔCT for the gene of interest was determined as the difference between the CT values for the reference gene and the gene of interest. Then, ΔΔCT was determined as the difference in dCT between the untreated control group and each of the treated groups. The fold induction for the gene of interest (i.e. the amount of mRNA for the gene of interest, normalized to an endogenous reference and relative to a calibrator) was determined as 2-ΔΔCT In graphs data is presented as a percentage.
(§5) Genes in involved in fatty acid β-oxidation and lipid metabolism were checked using real-time RT-PCR.

mUCP3 = experiment: Gene expression in C2C12 muscle cells (TaqMan RT-PCR): mUCP3; type: cell-based, mouse; conditions: for mUCP3 fold of induction compared to DMSO control: C2C12 cells, 24 h incubation, mRNA; for Effect on UCP3 expression (in words): muscle cells
Description: as §1, §2, §3, §4, §5

mCPT1b = experiment: Gene expression in C2C12 muscle cells (TaqMan RT-PCR): mCPT1b; type: cell-based, mouse; conditions: for mCPT1b fold of induction compared to DMSO control: C2C12 cells, 24 h incubation, mRNA; for Effect on CPT1b expression (in words): muscle cells
Description: as §1, §2, §3, §4, §5

mCD36 = experiment: Gene expression in C2C12 muscle cells (TaqMan RT-PCR): mCD36; type: cell-based, mouse; conditions: for mCD36 fold of induction compared to DMSO control: C2C12 cells, 24 h incubation, mRNA; for Effect on CD36 expression (in words): muscle cells
Description: as §1, §2, §3, §4, §5

mLPL = experiment: Gene expression in C2C12 muscle cells (TaqMan RT-PCR): mLPL; type: cell-based, mouse; conditions: for mLPL fold of induction compared to DMSO control: C2C12 cells, 24 h incubation, mRNA; for Effect on LPL expression (in words): muscle cells
Description: as §1, §2, §3, §4, §5

mFABP3 = experiment: Gene expression in C2C12 muscle cells (TaqMan RT-PCR): mFABP3; type: cell-based, mouse; conditions: for mFABP3 fold of induction compared to DMSO control: C2C12 cells, 24 h incubation, mRNA; for Effect on FABP3 expression (in words): muscle cells
Description: as §1, §2, §3, §4, §5

mACO1 = experiment: Gene expression in C2C12 muscle cells (TaqMan RT-PCR): mACO1; type: cell-based, mouse; conditions: 24 h incubation, mRNA
Description: as §1, §2, §3, §4, §5

C57B1/6J mice = experiment: Running performance, body composition and muscle weight of high-fat-diet mice supplemented for 9 weeks; type: in vivo, mouse
Description: 20 male C57B1/6J mice were obtained from Jackson Laboratory (Bar Harbor, Me., USA) at the age of 5 weeks. All mice were administered a high-fat diet (Kliba#2154, Provimi Kliba AG, Kaiseraugst, Switzerland) for 8 weeks to induce obesity. Thereafter, the mice were randomly assigned into two groups:
The duration of the supplementation was 9 weeks. During this period all mice received food and water ad libitum. At the end of the supplementation period, maximal running performance on a rodent treadmill (Technical & Scientific Equipment GmbH, Bad Homburg, Germany) was determined. Body composition was measured by quantitative magnetic resonance (Minispec MQ10, Bruker Optics GmbH, Faellanden, Switzerland) in conscious animals. At the end of the study, the animals were killed, blood was taken and the gastrocnemius-plantaris-soleus muscle group was excised and weighted.

[1] = compared to mice in the control group
[2] = mice, high-fat diet supplemented with 0.03% w/w, 9 weeks
[3] = mice, high-fat diet supplemented with 0.03% w/w, 9 weeks, quantitative magnetic resonance

| SMILES | mUCP2 fold of induction compared to DMSO control (mUCP2) | mUCP3 fold of induction compared to DMSO control (mUCP3) | Effect on UCP3 expression (in words) (mUCP3) | mCPT1b fold of induction compared to DMSO control (mCPT1b) | Effect on CPT1b expression (in words) (mCPT1b) | mCD36 fold of induction compared to DMSO control (mCD36) | Effect on CD36 expression (in words) (mCD36) | mLPL fold of induction compared to DMSO control (mLPL) | Effect on LPL expression (in words) (mLPL) | mFABP3 fold of induction compared to DMSO control (mFABP3) | Effect on FABP3 expression (in words) (mFABP3) | mACO1 fold of induction compared to DMSO control (mACO1) | other results |
| --- | --- | --- | --- | --- | --- | --- | --- | --- | --- | --- | --- | --- | --- |
| COc1ccc(C=CC(=O)c2cc(OC)ccc2OC)c(OC)c1 [Compound 3, 3-(2,4-dimethoxyphenyl)-1-(2,5-dimethoxyphenyl)-2-propen-1-one] | 4.25 fold | 4.73 fold | increased UCP3 expression | 3.64 fold | induced | 10.16 fold | most remarkable effect | 3.5 fold | increased moderately | 4.76 fold | most remarkable effect | 1.54 fold | – |
| COc1ccc(C(=O)C=Cc2cccc(OC(=O)C=Cc3ccccc3)c2)cc1 [Compound 5, 3-phenyl-2-propenoic acid 3-[3-(4-methoxyphenyl)-3-oxo-1-propenyl]phenyl ester] | 2.33 fold | – | – | 4.19 fold | induced | 1.91 fold | – | 1.84 fold | – | 1.88 fold | – | 1.03 fold | – |
| COc1ccc(C(=O)/C=C/c2c(CCN(C)C(C)=O)cc3c(c2OC)OCO3)cc1 [Compound 4] | 7.55 fold | 5.95 fold | increased UCP3 expression | 5.08 fold | induced | 15.56 fold | most remarkable effect | 3.31 fold | increased moderately | 6.29 fold | most remarkable effect | 1.74 fold | – |
| COc1cc(C=CC(=O)NC(=O)c2ccccc2O)cc(OC)c1OC [Compound 2] | 3.27 fold | – | – | 1.05 fold | – | 3.2 fold | – | 1.91 fold | – | 1.63 fold | – | 1.81 fold | – |
| COc1ccc(C=C2Oc3cc(O)ccc3C2=O)cc1 [Compound 7] | 2.33 fold | – | – | 1.12 fold | – | 2.95 fold | – | 1.06 fold | – | 2.16 fold | – | 1.03 fold | – |
| COc1ccc(C(=O)C=Cc2ccc(OC)cc2OC)cc1 [Compound 8, 3-(2,4-dimethoxyphenyl)-1-(4-methoxyphenyl)-2-propen-1-one] | 4.68 fold | – | – | 1.29 fold | – | 9.49 fold | – | 1.88 fold | – | 3.36 fold | – | 1.15 fold | – |
| O=C(C=Cc1ccc(O)c(O)c1)NC(=O)c1ccccc1O [Compound 1, N-[3-(3,4-dihydroxyphenyl)-1-oxo-2-propenyl]-2-hydroxybenzamide] | 2.46 fold | – | – | 1.33 fold | – | 2.93 fold | – | 1.11 fold | – | 1.35 fold | – | 1.98 fold | – |
| COc1ccc(C(=O)C=Cc2ccc(OC)c(OC)c2)cc1 [Compound 6, 3-(3,4-dimethoxyphenyl)-1-(4-methoxyphenyl)-2-propen-1-one] | 6.1 fold | 1.92 fold | increased UCP3 expression | 1.62 fold | – | 22.66 fold | most remarkable effect | 2.44 fold | increased moderately | 5.02 fold | most remarkable effect | 1.09 fold | – |
| COc1ccc(-c2coc3cc(OC)ccc3c2=O)cc1 [4′,7-Dimethoxyisoflavone, 4′,7-dimethoxyisoflavone] | – | – | – | – | – | – | – | – | – | – | – | – | Increase of maximal running distance (C57B1/6J mice; compared to control group, treadmill): 6%; Effect on body weight (in words) (C57B1/6J mice; [1]): decreased; Effect on gastrocnemius-plantaris-soleus weight relative to body weight (in words) (C57B1/6J mice; [1]): increased; Effect on percentage of body fat mass (in words) (C57B1/6J mice; [1]): decreased; Effect on percentage of lean body mass (in words) (C57B1/6J mice; [1]): increased; Body weight (C57B1/6J mice; [2]): 30.5 g; Gastrocnemius-plantaris-soleus weight (C57B1/6J mice; [2]): 6.74 mg/g body weight; Body fat mass (C57B1/6J mice; [3]): 15.6 % of body weight; Lean body mass (C57B1/6J mice; [3]): 75.0 % of body weight; Maximal running distance (C57B1/6J mice; mice, high-fat diet supplemented with 0.03% w/w, 9 weeks, rodent treadmill): 2201 m |
